Several values for one entry are separate records, joined by “and”; a condition that tells them apart may be missing. Equal entries are not always repeated.
Assay: SPECT/CT image-based normal organ dosimetry (MIRD S-value methodology), Phase I BET-PSMA-121
Type: in vivo, human
Conditions: for Cumulative image-based absorbed dose, bone marrow, range across patients / Cumulative image-based absorbed dose, salivary glands, range across patients: all cycles; for Cumulative Absorbed Dose, Bone Marrow, % of dose limit: limit 2 Gy; for Cumulative Absorbed Dose, Salivary Glands, % of dose limit: limit 24 Gy
Source text: Figure 1 provides a schematic representation of the study. Enrolled patients were sequentially entered into one of the two cohorts. Cohort A received 5.55 GBq (150 mCi) of ^177Lu-rhPSMA-10.1 and Cohort B received 7.40 GBq (200 mCi) of ^177Lu-rhPSMA-10.1. Subsequent doses were delivered at 6-week intervals subject to individual tolerability and safety assessments. Each patient received between one and three cycles, with a maximum of three cycles of treatment being permitted in this initial part of the study. All administrations of ^177Lu-rhPSMA-10.1 were performed using intravenous injection under the supervision of the treating physician.
Multi-bed single-photon emission computed tomography (SPECT)/CT was conducted at 3-, 24-, 48- and 168-hours post-^177Lu-rhPSMA-10.1 administration in each treatment cycle for the estimation of organ and tumour absorbed doses in each patient. Prior to commencement of the study, each investigating site was required to complete a calibration of their dose calibrator and SPECT/CT system to ensure harmonised quantification of the imaging data. Quantitative reconstructions and all dosimetry analyses were carried out centrally by an independent dosimetry vendor (Radiopharmaceutical Imaging and Dosimetry LLC, Baltimore, MD).
The specific absorbed doses (Gy/GBq) in normal organs and tumours were determined using the Medical Internal Radiation Dose (MIRD) Committee S-value methodology. Individual patient organ masses, determined via CT delineation, were scaled to reflect deviations from reference phantom geometry. Cumulative organ absorbed doses (Gy) were calculated across all treatment cycles. Further details on dosimetry methodology are provided in the supplemental materials and have been reported in accordance with EANM guidance.
All patients underwent multi-bed single-photon emission computed tomography (SPECT)/CT at 3-, 24-, 48- and 168-hours post-^177Lu-rhPSMA-10.1 administration during each treatment cycle. The acquisition parameters are shown in Supplemental Table S1. All images were centrally reconstructed in 3D-RD-S using the iterative Ordered Subsets Expectation-Maximization (OSEM) algorithm with 40 iterations and 5 subsets. Attenuation, scatter, and the Collimator-Detector Response Function (CDRF) were modelled during the iterative process using a rotation-based projector. CT-based attenuation compensation was performed using the attenuation map generated from the CT image. Scatter was modelled using the Effective Source Scatter Estimation (ESSE) method.
Reconstructed images were converted to activity concentration units (Becquerel (Bq)/millilitre (mL)) using the calibration factor generated for each individual imaging system. Organ masses were individually determined using CT-based delineations and longitudinal SPECT activity statistics were based on these same delineations.
Time integrated activity coefficients (TIACs) were calculated for each target tissue. This was done by fitting each time–activity curve with an exponential function (mono, bi, or exponential uptake and washout) and integrating from time 0 to infinity. The simpler function was preferred provided the fit was adequate ([…]).
The TIAC in the bone marrow was derived from contours drawn around the marrow inside lumbar vertebrae L3–L5. Where lesions were present in the lumbar area, contours were drawn around either the femur heads, scapula or sternum depending on the anatomical coverage. The TIAC was then divided by the marrow mass in this region to give the TIAC concentration. The total bone marrow TIAC was be obtained as the product of this concentration and the standard International Commission on Radiological Protection (ICRP) bone marrow mass.
The S-value methodology was used to estimate the target tissue dose. […]

[1] = Cohort A (5.55 GBq/cycle), 3 patients
[2] = Cohort B (7.40 GBq/cycle), 10 patients
[3] = Patient 1, Cohort A, 3 cycles, 16.20 GBq cumulative
[4] = Patient 2, Cohort A, 2 cycles, 11.57 GBq cumulative
[5] = Patient 3, Cohort A, 3 cycles, 16.58 GBq cumulative
[6] = Patient 4, Cohort B, 3 cycles, 22.94 GBq cumulative
[7] = Patient 5, Cohort B, 3 cycles, 22.29 GBq cumulative
[8] = Patient 6, Cohort B, 3 cycles, 22.59 GBq cumulative
[9] = Patient 7, Cohort B, 3 cycles, 22.29 GBq cumulative
[10] = Patient 8, Cohort B, 3 cycles, 22.86 GBq cumulative
[11] = Patient 9, Cohort B, 3 cycles, 22.10 GBq cumulative
[12] = Patient 10, Cohort B, 3 cycles, 23.30 GBq cumulative
[13] = Patient 11, Cohort B, 1 cycle, 7.80 GBq cumulative
[14] = Patient 12, Cohort B, 1 cycle, 7.46 GBq cumulative
[15] = Patient 13, Cohort B, 3 cycles, 22.23 GBq cumulative

## CC(C)(C)[Si](F)(c1ccc(C(=O)NC[C@@H](NC(=O)CN2CCN(CC(=O)[O-])CCN(CC(=O)[O-])CCN(CC(=O)[O-])CC2)C(=O)N[C@H](CCCCNC(=O)CCC(=O)NCCC[C@@H](NC(=O)CC[C@H](NC(=O)N[C@@H](CCC(=O)O)C(=O)O)C(=O)O)C(=O)O)C(=O)O)cc1)C(C)(C)C.[177Lu+3] [^177Lu-rhPSMA-10.1]
All Cycles
  Mean (SD) Absorbed Dose, adrenals: 0.010 (0.018) Gy/GBq
  Mean (SD) Absorbed Dose, bladder wall: 0.018 (0.010) Gy/GBq
  Mean (SD) Absorbed Dose, bone marrow (image-based): 0.011 Gy/GBq and 0.011 (0.020) Gy/GBq
  Mean (SD) Absorbed Dose, brain: 0.003 (0.004) Gy/GBq
  Mean (SD) Absorbed Dose, gall bladder wall: 0.004 (0.002) Gy/GBq
  Mean (SD) Absorbed Dose, heart: 0.014 (0.003) Gy/GBq
  Mean (SD) Absorbed Dose, intestine: 0.002 (0.001) Gy/GBq
  Mean (SD) Absorbed Dose, kidneys: 0.297 (0.098) Gy/GBq
  Mean (SD) Absorbed Dose, lacrimal glands: 0.611 (0.329) Gy/GBq
  Mean (SD) Absorbed Dose, liver: 0.035 (0.018) Gy/GBq
  Mean (SD) Absorbed Dose, lungs: 0.049 (0.055) Gy/GBq
  Mean (SD) Absorbed Dose, pancreas: 0.002 (0.001) Gy/GBq
  Mean (SD) Absorbed Dose, prostate: 0.003 (0.002) Gy/GBq
  Mean (SD) Absorbed Dose, salivary glands: 0.134 (0.077) Gy/GBq
  Mean (SD) Absorbed Dose, spleen: 0.034 (0.019) Gy/GBq
  Mean (SD) Absorbed Dose, stomach wall: 0.004 (0.003) Gy/GBq
  Mean (SD) Absorbed Dose, ureters: 0.002 (0.001) Gy/GBq
[1]
  Cumulative image-based absorbed dose, bone marrow, range across patients: 0.14–0.87 Gy
  Cumulative image-based absorbed dose, salivary glands, range across patients: 1.25–5.53 Gy
[2]
  Cumulative image-based absorbed dose, bone marrow, range across patients: 0.03–0.42 Gy
  Cumulative image-based absorbed dose, salivary glands, range across patients: 0.79–3.40 Gy
Cycle 1, 13 patients
  Mean (SD) Absorbed Dose, adrenals: 0.007 (0.002) Gy/GBq
  Mean (SD) Absorbed Dose, bladder wall: 0.018 (0.013) Gy/GBq
  Mean (SD) Absorbed Dose, bone marrow (image-based): 0.011 (0.010) Gy/GBq
  Mean (SD) Absorbed Dose, brain: 0.002 (0.001) Gy/GBq
  Mean (SD) Absorbed Dose, gall bladder wall: 0.004 (0.002) Gy/GBq
  Mean (SD) Absorbed Dose, heart: 0.013 (0.004) Gy/GBq
  Mean (SD) Absorbed Dose, intestine: 0.002 (0.001) Gy/GBq
  Mean (SD) Absorbed Dose, kidneys: 0.266 Gy/GBq and 0.27 Gy/GBq and 0.266 (0.075) Gy/GBq
  Mean (SD) Absorbed Dose, lacrimal glands: 0.568 (0.348) Gy/GBq
  Mean (SD) Absorbed Dose, liver: 0.034 (0.021) Gy/GBq
  Mean (SD) Absorbed Dose, lungs: 0.058 (0.072) Gy/GBq
  Mean (SD) Absorbed Dose, pancreas: 0.002 (0.001) Gy/GBq
  Mean (SD) Absorbed Dose, prostate: 0.003 (0.002) Gy/GBq
  Mean (SD) Absorbed Dose, salivary glands: 0.130 Gy/GBq and 0.13 Gy/GBq and 0.130 (0.068) Gy/GBq
  Mean (SD) Absorbed Dose, spleen: 0.034 (0.023) Gy/GBq
  Mean (SD) Absorbed Dose, stomach wall: 0.005 (0.005) Gy/GBq
  Mean (SD) Absorbed Dose, ureters: 0.002 (0.001) Gy/GBq
[3]
  Cumulative Absorbed Dose, Bone Marrow: 0.14 Gy
  Cumulative Absorbed Dose, Kidney: 8.20 Gy
  Cumulative Absorbed Dose, Salivary Glands: 5.53 Gy
  Cumulative Absorbed Dose, Bone Marrow, % of dose limit: 7.0%
  Cumulative Absorbed Dose, Salivary Glands, % of dose limit: 23%
Patient 1, Cohort A, 3 cycles, 16.20 GBq cumulative, limit 23 Gy
  Cumulative Absorbed Dose, Kidney, % of dose limit: 36%
[4]
  Cumulative Absorbed Dose, Bone Marrow: 0.14 Gy
  Cumulative Absorbed Dose, Kidney: 5.86 Gy
  Cumulative Absorbed Dose, Salivary Glands: 1.25 Gy
  Cumulative Absorbed Dose, Bone Marrow, % of dose limit: 7.0%
  Cumulative Absorbed Dose, Salivary Glands, % of dose limit: 5.2%
Patient 2, Cohort A, 2 cycles, 11.57 GBq cumulative, limit 23 Gy
  Cumulative Absorbed Dose, Kidney, % of dose limit: 25%
[5]
  Cumulative Absorbed Dose, Bone Marrow: 0.87 Gy
  Cumulative Absorbed Dose, Kidney: 6.15 Gy
  Cumulative Absorbed Dose, Salivary Glands: 2.96 Gy
  Cumulative Absorbed Dose, Bone Marrow, % of dose limit: 44%
  Cumulative Absorbed Dose, Salivary Glands, % of dose limit: 12%
Patient 3, Cohort A, 3 cycles, 16.58 GBq cumulative, limit 23 Gy
  Cumulative Absorbed Dose, Kidney, % of dose limit: 27%
[6]
  Cumulative Absorbed Dose, Bone Marrow: 0.13 Gy
  Cumulative Absorbed Dose, Kidney: 8.33 Gy
  Cumulative Absorbed Dose, Salivary Glands: 2.87 Gy
  Cumulative Absorbed Dose, Bone Marrow, % of dose limit: 6.5%
  Cumulative Absorbed Dose, Salivary Glands, % of dose limit: 12%
Patient 4, Cohort B, 3 cycles, 22.94 GBq cumulative, limit 23 Gy
  Cumulative Absorbed Dose, Kidney, % of dose limit: 36%
[7]
  Cumulative Absorbed Dose, Bone Marrow: 0.07 Gy
  Cumulative Absorbed Dose, Kidney: 6.25 Gy
  Cumulative Absorbed Dose, Salivary Glands: 2.85 Gy
  Cumulative Absorbed Dose, Bone Marrow, % of dose limit: 3.5%
  Cumulative Absorbed Dose, Salivary Glands, % of dose limit: 12%
Patient 5, Cohort B, 3 cycles, 22.29 GBq cumulative, limit 23 Gy
  Cumulative Absorbed Dose, Kidney, % of dose limit: 27%
[8]
  Cumulative Absorbed Dose, Bone Marrow: 0.42 Gy
  Cumulative Absorbed Dose, Kidney: 7.31 Gy
  Cumulative Absorbed Dose, Salivary Glands: 2.87 Gy
  Cumulative Absorbed Dose, Bone Marrow, % of dose limit: 21%
  Cumulative Absorbed Dose, Salivary Glands, % of dose limit: 12%
Patient 6, Cohort B, 3 cycles, 22.59 GBq cumulative, limit 23 Gy
  Cumulative Absorbed Dose, Kidney, % of dose limit: 32%
[9]
  Cumulative Absorbed Dose, Bone Marrow: 0.05 Gy
  Cumulative Absorbed Dose, Kidney: 4.02 Gy
  Cumulative Absorbed Dose, Salivary Glands: 2.88 Gy
  Cumulative Absorbed Dose, Bone Marrow, % of dose limit: 2.5%
  Cumulative Absorbed Dose, Salivary Glands, % of dose limit: 12%
Patient 7, Cohort B, 3 cycles, 22.29 GBq cumulative, limit 23 Gy
  Cumulative Absorbed Dose, Kidney, % of dose limit: 17%
[10]
  Cumulative Absorbed Dose, Bone Marrow: 0.24 Gy
  Cumulative Absorbed Dose, Kidney: 5.18 Gy
  Cumulative Absorbed Dose, Salivary Glands: 1.17 Gy
  Cumulative Absorbed Dose, Bone Marrow, % of dose limit: 12%
  Cumulative Absorbed Dose, Salivary Glands, % of dose limit: 4.9%
Patient 8, Cohort B, 3 cycles, 22.86 GBq cumulative, limit 23 Gy
  Cumulative Absorbed Dose, Kidney, % of dose limit: 23%
[11]
  Cumulative Absorbed Dose, Bone Marrow: 0.05 Gy
  Cumulative Absorbed Dose, Kidney: 5.18 Gy
  Cumulative Absorbed Dose, Salivary Glands: 2.00 Gy
  Cumulative Absorbed Dose, Bone Marrow, % of dose limit: 2.5%
  Cumulative Absorbed Dose, Salivary Glands, % of dose limit: 8.3%
Patient 9, Cohort B, 3 cycles, 22.10 GBq cumulative, limit 23 Gy
  Cumulative Absorbed Dose, Kidney, % of dose limit: 23%
[12]
  Cumulative Absorbed Dose, Bone Marrow: 0.03 Gy
  Cumulative Absorbed Dose, Kidney: 4.29 Gy
  Cumulative Absorbed Dose, Salivary Glands: 0.82 Gy
  Cumulative Absorbed Dose, Bone Marrow, % of dose limit: 1.5%
  Cumulative Absorbed Dose, Salivary Glands, % of dose limit: 3.4%
Patient 10, Cohort B, 3 cycles, 23.30 GBq cumulative, limit 23 Gy
  Cumulative Absorbed Dose, Kidney, % of dose limit: 19%
[13]
  Cumulative Absorbed Dose, Bone Marrow: 0.23 Gy
  Cumulative Absorbed Dose, Kidney: 1.52 Gy
  Cumulative Absorbed Dose, Salivary Glands: 0.88 Gy
  Cumulative Absorbed Dose, Bone Marrow, % of dose limit: 11%
  Cumulative Absorbed Dose, Salivary Glands, % of dose limit: 3.7%
Patient 11, Cohort B, 1 cycle, 7.80 GBq cumulative, limit 23 Gy
  Cumulative Absorbed Dose, Kidney, % of dose limit: 6.6%
[14]
  Cumulative Absorbed Dose, Bone Marrow: 0.04 Gy
  Cumulative Absorbed Dose, Kidney: 1.71 Gy
  Cumulative Absorbed Dose, Salivary Glands: 0.79 Gy
  Cumulative Absorbed Dose, Bone Marrow, % of dose limit: 2.0%
  Cumulative Absorbed Dose, Salivary Glands, % of dose limit: 3.3%
Patient 12, Cohort B, 1 cycle, 7.46 GBq cumulative, limit 23 Gy
  Cumulative Absorbed Dose, Kidney, % of dose limit: 7.4%
[15]
  Cumulative Absorbed Dose, Bone Marrow: 0.05 Gy
  Cumulative Absorbed Dose, Kidney: 4.63 Gy
  Cumulative Absorbed Dose, Salivary Glands: 3.40 Gy
  Cumulative Absorbed Dose, Bone Marrow, % of dose limit: 2.5%
  Cumulative Absorbed Dose, Salivary Glands, % of dose limit: 14%
Patient 13, Cohort B, 3 cycles, 22.23 GBq cumulative, limit 23 Gy
  Cumulative Absorbed Dose, Kidney, % of dose limit: 20%
All patients, both dosing cohorts
  Cumulative absorbed doses versus historical EBRT organ dose limits: below the historical external beam radiation therapy (EBRT) organ dose limits
At 7.4 GBq per cycle, range across the 13 patients
  Equivalent number of treatment cycles to reach the EBRT kidney dose limit of 23 Gy: 6–17 cycles
Limit 23 Gy, maximum of three cycles
  Cumulative absorbed dose to the kidney as % of the EBRT dose limit, highest reached: ≤ 36%
